According to ChEMBL document CHEMBL4507262, “Data for DCP probe A-1596586” (2021):

Key:
[1] = target: P2X receptor (Rattus norvegicus) (UniProt P51579+P49653+P51578+Q64663+P47824+P51577+P49654); assay: P2X Eurofins-Cerep binding assay; assay type: protein assay; set-up: ligand concentration 3 nM; conditions: filed as agonist, Compound concentration 10.0 uM
[2] = target: 5'-AMP-activated protein kinase catalytic subunit alpha-1 (Homo sapiens) (UniProt Q13131); conditions: Compound concentration 1000.0 nM
[3] = tested on: Mast/stem cell growth factor receptor Kit (Homo sapiens), P10721 [V559D,T670I]; conditions: Compound concentration 1000.0 nM
[4] = target: Mitogen-activated protein kinase 9 (Homo sapiens) (UniProt P45984); conditions: Compound concentration 1000.0 nM
[5] = target: Activin receptor type-1B (Homo sapiens) (UniProt P36896); conditions: Compound concentration 1000.0 nM
[6] = target: Cyclin-dependent kinase 5 (Homo sapiens) (UniProt Q00535); conditions: Compound concentration 1000.0 nM
[7] = target: Myosin light chain kinase (Homo sapiens) (UniProt Q32MK0); conditions: Compound concentration 1000.0 nM
[8] = tested on: Phosphatidylinositol 4,5-bisphosphate 3-kinase catalytic subunit alpha isoform (Homo sapiens), P42336 [I800L]; conditions: Compound concentration 1000.0 nM
[9] = target: Serine/threonine-protein kinase ULK2 (Homo sapiens) (UniProt Q8IYT8); conditions: Compound concentration 1000.0 nM
[10] = target: Insulin receptor (Homo sapiens) (UniProt P06213); conditions: Compound concentration 1000.0 nM
[11] = target: T1, Muscarinic acetylcholine receptor M4 (Homo sapiens) (UniProt P08173); conditions: Compound concentration 10.0 uM
T1 sequence (whole entry): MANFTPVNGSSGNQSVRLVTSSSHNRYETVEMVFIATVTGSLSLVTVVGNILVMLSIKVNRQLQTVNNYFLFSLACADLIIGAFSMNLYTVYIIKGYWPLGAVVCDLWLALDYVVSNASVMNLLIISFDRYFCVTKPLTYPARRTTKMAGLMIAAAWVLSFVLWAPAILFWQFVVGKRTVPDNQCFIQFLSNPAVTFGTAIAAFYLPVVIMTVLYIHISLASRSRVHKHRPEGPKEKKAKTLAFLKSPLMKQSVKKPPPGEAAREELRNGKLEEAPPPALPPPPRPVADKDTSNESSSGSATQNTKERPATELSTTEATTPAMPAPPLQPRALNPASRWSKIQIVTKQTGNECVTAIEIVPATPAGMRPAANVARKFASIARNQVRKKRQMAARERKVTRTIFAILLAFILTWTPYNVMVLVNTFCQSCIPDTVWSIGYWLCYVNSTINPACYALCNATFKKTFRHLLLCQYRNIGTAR

[12] = target: Proto-oncogene tyrosine-protein kinase Src (Homo sapiens) (UniProt P12931); conditions: Compound concentration 1000.0 nM
[13] = target: Serine/threonine-protein kinase WNK2 (Homo sapiens) (UniProt Q9Y3S1); conditions: Compound concentration 1000.0 nM
[14] = target: Adenosine receptor A2b (Homo sapiens) (UniProt P29275); assay: A2B (h) Eurofins-Cerep binding assay; set-up: ligand concentration 5 nM; conditions: filed as antagonist, Compound concentration 10.0 uM
[15] = target: RAF proto-oncogene serine/threonine-protein kinase (Homo sapiens) (UniProt P04049); conditions: Compound concentration 1000.0 nM
[16] = target: Death-associated protein kinase 2 (Homo sapiens) (UniProt Q9UIK4); conditions: Compound concentration 1000.0 nM
[17] = tested on: Mast/stem cell growth factor receptor Kit (Homo sapiens), P10721 [D816V]; conditions: Compound concentration 1000.0 nM
[18] = target: Ribosomal protein S6 kinase alpha-2 (Homo sapiens) (UniProt Q15349); conditions: Compound concentration 1000.0 nM
[19] = target: Ribosomal protein S6 kinase alpha-4 (Homo sapiens) (UniProt O75676); conditions: Compound concentration 1000.0 nM
[20] = target: Vascular endothelial growth factor receptor 2 (Homo sapiens) (UniProt P35968); conditions: Compound concentration 1000.0 nM
[21] = tested on: Tyrosine-protein kinase ABL1 (Homo sapiens), P00519 [M351T]; conditions: Compound concentration 1000.0 nM
[22] = target: Ephrin type-B receptor 3 (Homo sapiens) (UniProt P54753); conditions: Compound concentration 1000.0 nM
[23] = target: Tyrosine-protein kinase Lyn (Homo sapiens) (UniProt P07948); conditions: Compound concentration 1000.0 nM
[24] = target: T2, Muscarinic acetylcholine receptor M2 (Homo sapiens) (UniProt P08172); assay: M2 (h) Eurofins-Cerep binding assay; set-up: ligand concentration 2 nM; conditions: filed as antagonist, Compound concentration 10.0 uM
T2 sequence (whole entry): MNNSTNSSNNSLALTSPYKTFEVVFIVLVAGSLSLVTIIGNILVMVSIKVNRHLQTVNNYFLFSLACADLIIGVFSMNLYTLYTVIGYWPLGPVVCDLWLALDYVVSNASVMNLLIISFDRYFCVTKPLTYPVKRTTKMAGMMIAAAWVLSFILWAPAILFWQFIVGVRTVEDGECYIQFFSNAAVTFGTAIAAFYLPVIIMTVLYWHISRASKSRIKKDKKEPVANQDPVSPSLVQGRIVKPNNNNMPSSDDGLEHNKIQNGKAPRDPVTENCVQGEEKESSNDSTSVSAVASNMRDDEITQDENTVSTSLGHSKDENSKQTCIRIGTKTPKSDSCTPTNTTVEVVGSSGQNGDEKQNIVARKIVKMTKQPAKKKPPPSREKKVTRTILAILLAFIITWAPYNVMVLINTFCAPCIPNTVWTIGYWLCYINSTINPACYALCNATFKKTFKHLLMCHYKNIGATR

[25] = target: Ribosomal protein S6 kinase alpha-3 (Homo sapiens) (UniProt P51812); conditions: Compound concentration 1000.0 nM
[26] = tested on: Proto-oncogene tyrosine-protein kinase receptor Ret (Homo sapiens), P07949 [V804L]; conditions: Compound concentration 1000.0 nM
[27] = target: Mitogen-activated protein kinase 6 (Homo sapiens) (UniProt Q16659); conditions: Compound concentration 1000.0 nM
[28] = tested on: Epidermal growth factor receptor (Homo sapiens), P00533 [L861Q]; conditions: Compound concentration 1000.0 nM
[29] = target: T1, Muscarinic acetylcholine receptor M4 (Homo sapiens); assay: M4 (h) Eurofins-Cerep binding assay; set-up: ligand concentration 0.2 nM; conditions: filed as antagonist, Compound concentration 10.0 uM
[30] = target: Cyclin-dependent kinase-like 5 (Homo sapiens) (UniProt O76039); conditions: Compound concentration 1000.0 nM
[31] = target: Cyclin-dependent kinase 19 (Homo sapiens) (UniProt Q9BWU1); conditions: Compound concentration 1000.0 nM
[32] = target: Mitogen-activated protein kinase kinase kinase 14 (Homo sapiens) (UniProt Q99558); conditions: Compound concentration 1000.0 nM

Sequence of Cyclin-dependent kinase 5 (Homo sapiens) (Q00535 whole entry, looked up): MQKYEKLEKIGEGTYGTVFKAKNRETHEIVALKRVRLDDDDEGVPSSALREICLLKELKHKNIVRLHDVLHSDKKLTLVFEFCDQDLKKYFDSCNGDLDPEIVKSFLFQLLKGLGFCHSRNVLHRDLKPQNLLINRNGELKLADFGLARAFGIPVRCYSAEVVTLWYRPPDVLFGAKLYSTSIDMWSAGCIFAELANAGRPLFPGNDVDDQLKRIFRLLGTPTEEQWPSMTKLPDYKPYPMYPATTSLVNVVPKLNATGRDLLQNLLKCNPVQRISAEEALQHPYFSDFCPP
Sequence of Proto-oncogene tyrosine-protein kinase Src (Homo sapiens) (P12931 2-536 limits assumed): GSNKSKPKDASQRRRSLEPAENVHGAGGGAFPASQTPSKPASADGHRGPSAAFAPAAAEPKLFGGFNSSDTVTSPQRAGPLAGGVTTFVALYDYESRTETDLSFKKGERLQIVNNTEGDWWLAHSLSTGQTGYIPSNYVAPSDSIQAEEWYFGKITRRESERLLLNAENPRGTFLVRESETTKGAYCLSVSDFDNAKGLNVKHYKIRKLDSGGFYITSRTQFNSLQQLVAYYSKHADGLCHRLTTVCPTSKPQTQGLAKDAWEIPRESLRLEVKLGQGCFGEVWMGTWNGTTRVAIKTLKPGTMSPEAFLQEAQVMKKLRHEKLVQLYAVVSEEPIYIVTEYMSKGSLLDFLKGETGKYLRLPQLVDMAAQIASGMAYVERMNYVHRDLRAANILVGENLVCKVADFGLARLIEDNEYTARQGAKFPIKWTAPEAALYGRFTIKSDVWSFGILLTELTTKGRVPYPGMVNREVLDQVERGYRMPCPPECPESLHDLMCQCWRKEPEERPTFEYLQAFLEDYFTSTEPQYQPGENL
Sequence of Activin receptor type-1B (Homo sapiens) (P36896 whole entry): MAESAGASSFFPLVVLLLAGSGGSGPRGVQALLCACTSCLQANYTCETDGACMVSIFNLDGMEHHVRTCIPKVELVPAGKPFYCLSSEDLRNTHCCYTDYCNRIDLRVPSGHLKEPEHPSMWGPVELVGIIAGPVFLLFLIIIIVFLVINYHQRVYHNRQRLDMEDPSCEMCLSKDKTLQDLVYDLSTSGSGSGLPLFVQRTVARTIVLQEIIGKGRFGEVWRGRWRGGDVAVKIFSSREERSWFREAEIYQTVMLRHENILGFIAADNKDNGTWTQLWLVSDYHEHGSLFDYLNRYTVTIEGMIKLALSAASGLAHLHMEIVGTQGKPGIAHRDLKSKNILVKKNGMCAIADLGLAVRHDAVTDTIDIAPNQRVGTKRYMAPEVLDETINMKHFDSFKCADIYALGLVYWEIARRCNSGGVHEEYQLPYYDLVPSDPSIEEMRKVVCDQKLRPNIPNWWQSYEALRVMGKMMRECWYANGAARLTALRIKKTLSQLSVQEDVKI
Sequence of Serine/threonine-protein kinase WNK2 (Homo sapiens) (Q9Y3S1 whole entry): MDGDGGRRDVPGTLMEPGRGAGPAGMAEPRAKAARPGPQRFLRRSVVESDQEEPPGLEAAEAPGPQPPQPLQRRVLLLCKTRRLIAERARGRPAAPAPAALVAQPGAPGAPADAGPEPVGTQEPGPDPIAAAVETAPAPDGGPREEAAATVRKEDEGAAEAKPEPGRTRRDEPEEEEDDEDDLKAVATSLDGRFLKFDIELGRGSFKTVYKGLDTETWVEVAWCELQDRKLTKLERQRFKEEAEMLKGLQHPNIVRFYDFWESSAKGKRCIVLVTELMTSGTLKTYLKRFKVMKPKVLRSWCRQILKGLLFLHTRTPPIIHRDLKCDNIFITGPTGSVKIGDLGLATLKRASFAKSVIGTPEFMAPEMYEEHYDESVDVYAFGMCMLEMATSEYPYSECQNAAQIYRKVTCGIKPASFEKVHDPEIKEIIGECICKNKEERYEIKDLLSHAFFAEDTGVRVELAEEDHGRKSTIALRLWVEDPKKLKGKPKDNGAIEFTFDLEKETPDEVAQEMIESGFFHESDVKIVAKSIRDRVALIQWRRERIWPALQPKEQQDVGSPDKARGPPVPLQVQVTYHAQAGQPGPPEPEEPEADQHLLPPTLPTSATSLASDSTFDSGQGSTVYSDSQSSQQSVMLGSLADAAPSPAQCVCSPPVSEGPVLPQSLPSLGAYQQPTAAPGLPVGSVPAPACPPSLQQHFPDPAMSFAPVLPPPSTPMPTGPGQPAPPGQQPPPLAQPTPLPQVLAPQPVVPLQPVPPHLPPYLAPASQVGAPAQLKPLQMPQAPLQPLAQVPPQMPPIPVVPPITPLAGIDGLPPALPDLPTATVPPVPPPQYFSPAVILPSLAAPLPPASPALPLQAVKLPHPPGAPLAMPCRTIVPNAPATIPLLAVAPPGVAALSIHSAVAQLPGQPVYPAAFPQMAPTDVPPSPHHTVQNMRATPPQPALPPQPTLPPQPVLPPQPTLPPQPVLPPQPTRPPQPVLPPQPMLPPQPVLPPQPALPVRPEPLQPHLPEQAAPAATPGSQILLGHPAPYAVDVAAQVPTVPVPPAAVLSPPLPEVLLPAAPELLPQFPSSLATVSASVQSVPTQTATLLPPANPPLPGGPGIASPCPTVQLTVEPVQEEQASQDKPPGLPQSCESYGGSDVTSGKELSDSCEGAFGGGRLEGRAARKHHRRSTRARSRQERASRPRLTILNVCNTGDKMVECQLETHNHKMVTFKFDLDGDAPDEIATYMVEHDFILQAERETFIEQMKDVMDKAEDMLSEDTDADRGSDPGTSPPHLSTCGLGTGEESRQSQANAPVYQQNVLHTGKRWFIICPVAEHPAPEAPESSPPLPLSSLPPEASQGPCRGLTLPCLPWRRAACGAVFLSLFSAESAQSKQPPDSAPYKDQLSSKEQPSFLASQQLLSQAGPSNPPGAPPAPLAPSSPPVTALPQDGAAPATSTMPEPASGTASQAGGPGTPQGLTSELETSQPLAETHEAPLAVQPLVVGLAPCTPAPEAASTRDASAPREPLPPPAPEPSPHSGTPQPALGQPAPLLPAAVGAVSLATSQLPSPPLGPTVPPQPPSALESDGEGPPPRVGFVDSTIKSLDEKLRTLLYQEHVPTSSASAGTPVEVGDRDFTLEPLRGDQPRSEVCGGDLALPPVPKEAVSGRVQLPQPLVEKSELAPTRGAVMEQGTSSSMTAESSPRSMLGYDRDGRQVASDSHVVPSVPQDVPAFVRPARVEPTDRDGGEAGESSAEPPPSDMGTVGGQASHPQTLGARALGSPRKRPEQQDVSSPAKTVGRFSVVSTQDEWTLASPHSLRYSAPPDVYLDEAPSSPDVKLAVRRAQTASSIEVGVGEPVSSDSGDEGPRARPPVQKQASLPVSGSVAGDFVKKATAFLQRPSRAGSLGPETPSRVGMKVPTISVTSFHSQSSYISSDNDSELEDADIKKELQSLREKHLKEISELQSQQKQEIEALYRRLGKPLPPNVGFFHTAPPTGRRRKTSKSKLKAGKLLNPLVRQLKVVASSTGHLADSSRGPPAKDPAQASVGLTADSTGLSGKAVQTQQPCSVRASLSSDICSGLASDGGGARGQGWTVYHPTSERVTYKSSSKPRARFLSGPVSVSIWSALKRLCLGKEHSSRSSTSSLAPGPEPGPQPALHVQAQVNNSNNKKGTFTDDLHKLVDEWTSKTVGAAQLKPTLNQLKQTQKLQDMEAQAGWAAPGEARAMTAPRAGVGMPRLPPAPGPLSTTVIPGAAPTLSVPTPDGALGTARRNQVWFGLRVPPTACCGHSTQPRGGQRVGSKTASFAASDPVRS
Sequence of Vascular endothelial growth factor receptor 2 (Homo sapiens) (P35968 whole entry): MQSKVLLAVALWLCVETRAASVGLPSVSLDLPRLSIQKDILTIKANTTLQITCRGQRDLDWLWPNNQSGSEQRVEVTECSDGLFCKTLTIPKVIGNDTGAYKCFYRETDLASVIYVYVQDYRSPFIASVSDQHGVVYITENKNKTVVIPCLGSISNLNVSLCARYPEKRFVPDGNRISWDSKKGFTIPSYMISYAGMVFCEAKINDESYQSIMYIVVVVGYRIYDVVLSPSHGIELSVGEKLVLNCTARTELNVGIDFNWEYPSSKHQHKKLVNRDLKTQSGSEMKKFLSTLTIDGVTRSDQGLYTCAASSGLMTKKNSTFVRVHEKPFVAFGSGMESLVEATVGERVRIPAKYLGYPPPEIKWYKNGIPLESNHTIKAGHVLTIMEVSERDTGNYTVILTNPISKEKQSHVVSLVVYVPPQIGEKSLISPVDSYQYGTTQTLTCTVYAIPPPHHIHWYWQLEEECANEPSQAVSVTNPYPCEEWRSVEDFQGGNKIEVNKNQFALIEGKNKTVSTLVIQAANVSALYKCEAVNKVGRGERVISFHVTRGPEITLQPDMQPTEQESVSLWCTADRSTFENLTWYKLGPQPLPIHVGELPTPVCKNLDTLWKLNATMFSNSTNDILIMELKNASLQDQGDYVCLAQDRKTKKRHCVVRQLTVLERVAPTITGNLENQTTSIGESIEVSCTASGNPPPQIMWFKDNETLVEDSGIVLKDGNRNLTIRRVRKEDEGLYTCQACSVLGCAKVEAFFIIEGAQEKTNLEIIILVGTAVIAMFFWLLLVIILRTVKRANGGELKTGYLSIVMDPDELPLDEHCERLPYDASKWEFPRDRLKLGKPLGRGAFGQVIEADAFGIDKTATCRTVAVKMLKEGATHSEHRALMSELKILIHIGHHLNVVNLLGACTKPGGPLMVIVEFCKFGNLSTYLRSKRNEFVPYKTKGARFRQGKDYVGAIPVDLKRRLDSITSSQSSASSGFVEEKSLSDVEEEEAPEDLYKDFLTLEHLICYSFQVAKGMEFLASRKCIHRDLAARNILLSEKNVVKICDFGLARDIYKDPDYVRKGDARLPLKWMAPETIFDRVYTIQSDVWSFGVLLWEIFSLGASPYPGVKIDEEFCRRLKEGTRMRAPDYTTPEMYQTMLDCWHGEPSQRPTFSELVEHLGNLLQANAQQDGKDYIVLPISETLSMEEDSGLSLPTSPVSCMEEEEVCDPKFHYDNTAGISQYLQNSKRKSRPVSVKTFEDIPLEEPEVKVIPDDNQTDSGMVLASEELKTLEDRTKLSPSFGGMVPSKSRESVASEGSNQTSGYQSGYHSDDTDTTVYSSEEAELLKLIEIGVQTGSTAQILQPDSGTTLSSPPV

## COc1ccc2c(c1)O[C@@H](c1ccc(OC)c(OC)c1)C[C@H]2NC(=O)C1(c2ccc3c(c2)OC(F)(F)O3)CC1 [A-1596586]
[1]
  % Inhibition of Control Specific Binding (Mean n=2): -21.7%
[2]
  residual activity: 80%
[3]
  residual activity: 99%
[4]
  residual activity: 83%
[5]
  residual activity: 67%
[6]
  residual activity: 100%
[7]
  residual activity: 95%
[8]
  residual activity: 79%
[9]
  residual activity: 77%
[10]
  residual activity: 79%
[11]
  inhibition: -2.72%
[12]
  residual activity: 100%
[13]
  residual activity: 84%
[14]
  % Inhibition of Control Specific Binding (Mean n=2): 3.7%
[15]
  residual activity: 100%
[16]
  residual activity: 98%
[17]
  residual activity: 92%
[18]
  residual activity: 95%
[19]
  residual activity: 94%
[20]
  residual activity: 80%
[21]
  residual activity: 78%
[22]
  residual activity: 90%
[23]
  residual activity: 100%
[24]
  % Inhibition of Control Specific Binding (Mean n=2): -9.9%
[25]
  residual activity: 81%
[26]
  residual activity: 95%
[27]
  residual activity: 100%
[28]
  residual activity: 100%
[29]
  % Inhibition of Control Specific Binding (Mean n=2): 6.1%
[30]
  residual activity: 85%
[31]
  residual activity: 93%
[32]
  residual activity: 87%

## COc1ccc2c(c1)O[C@H](c1ccc(OC)c(OC)c1)C[C@@H]2NC(=O)C1(c2ccc3c(c2)OC(F)(F)O3)CC1 [A-1596584]
[1]
  % Inhibition of Control Specific Binding (Mean n=2): 4.8%
[2]
  residual activity: 100%
[3]
  residual activity: 100%
[4]
  residual activity: 92%
[5]
  residual activity: 82%
[6]
  residual activity: 100%
[7]
  residual activity: 95%
[8]
  residual activity: 97%
[9]
  residual activity: 100%
[10]
  residual activity: 82%
[11]
  inhibition: 0.59%
[12]
  residual activity: 100%
[13]
  residual activity: 85%
[14]
  % Inhibition of Control Specific Binding (Mean n=2): 3.6%
[15]
  residual activity: 100%
[16]
  residual activity: 98%
[17]
  residual activity: 99%
[18]
  residual activity: 95%
[19]
  residual activity: 100%
[20]
  residual activity: 88%
[21]
  residual activity: 88%
[22]
  residual activity: 91%
[23]
  residual activity: 88%
[24]
  % Inhibition of Control Specific Binding (Mean n=2): -5.5%
[25]
  residual activity: 74%
[26]
  residual activity: 87%
[27]
  residual activity: 100%
[28]
  residual activity: 100%
[29]
  % Inhibition of Control Specific Binding (Mean n=2): -3.9%
[30]
  residual activity: 100%
[31]
  residual activity: 94%
[32]
  residual activity: 100%
